Measured values: US9707267B2, “Beta-turn peptidomimetic cyclic compounds for treating dry eye” (Mimetogen Pharmaceuticals, Inc., priority 2008, dated 2017)

Legend:
naïve rats = assay: Tear mucin production in naïve rats following topical instillation, ELLA (Example 4); type: in vivo, rat
Protocol: Dose-ranging studies were conducted on the topical instillations of compound D3 in stimulating mucin production in naïve rats. Thirty male sprague dawley rats were divided into five groups of six rats per group and were treated bilaterally once every hour for six consecutive hours with either saline, 0.4% of compound D3, 1.0% of compound D3, 2.5% of compound D3 and 0.00053% of NGF. Once anesthetized, each animal received a 5 μL topical instillation of test article into the lower conjunctival sac of both eyes using a calibrated micropipette.
Tear fluid washings from both eyes were pooled and were collected prior to treatment and following six hourly instillations of saline, compound D3 and NGF. All tear fluid washings were evaluated for mucin concentration by an enzyme-linked lectin assay (ELLA).
The mean and standard deviation (SD) were used to characterize the data. The differences in mucin concentration was calculated from treated minus baseline from groups of rats. Continuous mucin changes between two groups from baseline were evaluated using the paired t test. The mucin changes between more than two treatment groups were analyzed using an analysis of variance. The median mucin changes between treatment groups were compared against a theoretical median of zero using the […]. A two-sided test with P<0.05 was considered to be statistically significant. Statistical analysis were performed using GraphPad Prism 4.0C (GraphPad Software Inc., La Jolla, Calif.).

[1] = system: Scopolamine Induced Rat Dry Eye Model; assay: Scopolamine induced rat dry eye model, tear fluorescein clearance (Example 5); type: in vivo; conditions: ± SD
Protocol: Dry eye was induced using scopolamine hydrobromide (Sigma-Aldrich, St. Louis, Mo.), which was continuously and systemically delivered to the animals via an osmotic pump (2ML4 Alzet®; CedarLane, Burlington, Ontario) filled with scopolamine and implanted subcutaneously in the mid dorsal area between the scapulae. Scopolamine was delivered for a twenty-eight day period at 12.5 mg/day, which translated to 30.0±1.5 mg/kg via osmotic pump.
Treatments for G2-G6 continued daily for seventeen days (up to an including day twenty-one). Thereafter, treatments were terminated but the study continued for another week. During treatment, each animal was anesthetized in an isoflurane chamber. Once asleep, each animal received a 5 μL topical instillation of test article into the lower conjunctival sac of both eyes using a calibrated micropipette. If a clinical endpoint was also being tested, the test article was topically instilled at the end of the testing.
[…] Tear fluorescein clearance was evaluated as described for humans (Alfonso, A. A., et al., “Correlation of Tear Fluorescein Clearance and Schirmer Test Scores with Ocular Irritation Symptoms,” Ophthalmology 106:803-810 (1999), which is incorporated herein by reference in its entirety) and modified for rats (Chen, W., et al., “Keratoconjunctivitis Sicca Modifies Epithelial Stem Cell Proliferation Kinetics in Conjunctiva,” Cornea 26:1101-1106 (2007), which is incorporated herein by reference in its entirety). Animals were lightly sedated with Isoflurane and two microliters of 1% sodium fluorescein (Sigma-Aldrich, St. Louis, Mo.) solution (in sterile saline) was applied to the lower conjunctival sac. The animals awoke within two minutes. After fifteen minutes, the animals were re-sedated and the fluorescein-stained tear fluid was collected with a phenol-red cotton thread (as described for Schirmer testing). The threads were immediately sealed in 1.5 mL polypropylene Eppendorf tubes shielded from light until fluorophotometric analysis. The volume of the collected tear fluid was determined by the length of cotton wetting in mm. After, 100 μl of phosphate-buffered saline (PBS) was added, the tubes were spun at 12,000 rpm for five minutes and the fluid transferred to a 96-well polystyrene microtiter plate (Corning Life Sciences #2592, Fisher Scientific, Nepean, Ontario). A standard well was prepared on each plate, which consisted of a phenol-red thread placed in 100 μl PBS containing 2 μl of 1% sodium fluorescein solution. Fluorescence was measured immediately using a fluorescence microplate reader (FLUOstar OPTIMA, BMG Labtech, Germany) after setting the gain to the standard well. The concentration of fluorescein in tears was calculated from the fluorescence units divided by the mm of cotton wetting (Fu/mm).

[2] = Maximum solubility in topical dosing solution; type: physicochemical; conditions: buffered saline ~pH 7, isotonic; 25.0 mg per mL solution
Protocol: Compound D3 was prepared using a formulation designed by Mimetogen Pharmaceuticals, which is buffered saline ˜pH 7 (as determined by pH indicator strips, EMD Chemicals). Three topical dosing solutions were prepared as follows: • A topical dosing solution of 0.4% was prepared using 4.0 mg of compound dissolved in 845 μL, of sterile milliQ water. The solution was adjusted to ˜pH 7 with 6.5 μL of 1.0 N NaOH (VWR) using pH indicator strips and made isotonic (0.9% NaCl) by adding 148.5 μL of sterile 1.0 M NaCl. • A topical dosing solution of 1.0% was prepared using 10.0 mg of compound dissolved in 845 μL of sterile milliQ water. […] The solution was adjusted to ˜pH 7 with 20 μL of 1.0 N NaOH. The solution was made isotonic by adding 135 μL of sterile 1.0 M NaCl. All solutions were sonicated for 5 min. All compound D3 solutions were stored refrigerated (2-8° C.) for the duration of the study.

[3] = 2.5%, 5 μL bilaterally once every hour for six hours

Compound: NCCCC[C@@H]1NC(=O)[C@H](CCC(=O)O)NC(=O)c2cc([N+](=O)[O-])ccc2OCCC(C(=O)NCC(=O)O)NC1=O (some centres unmarked) [Compound D3]
- mean changes in mucin concentration (in words) (naïve rats; 0.4%, 1.0%, 2.5%, six hourly instillations): dose-dependent
- tear mucin concentration at baseline (naïve rats; 2.5% group, prior to treatment): 3.0 ± 1.9 ng/µL
- change in mucin concentration from baseline (naïve rats; [3]): 4.0 ± 3.5 ng/µL
- tear mucin concentration after treatment (naïve rats; [3]): 7.0 ± 4.5 ng/µL
- Tear Fluorescein Clearance ([1]; 0.4% group, Day 2, before treatment start (day 5)): 516 ± 305 FU/mm
- Tear Fluorescein Clearance ([1]; 0.4% group, Day −1, baseline, before treatment start (day 5)): 288 ± 247 FU/mm
- Tear Fluorescein Clearance ([1]; 0.4% topical 1× daily Days 5-21, Day 5 (test before first instillation)): 969 ± 732 FU/mm
- Tear Fluorescein Clearance ([1]; 0.4% topical 1× daily Days 5-21, Day 7): 296 ± 156 FU/mm
- Tear Fluorescein Clearance ([1]; 0.4% topical 1× daily Days 5-21, Day 14): 635 ± 599 FU/mm
- Tear Fluorescein Clearance ([1]; 0.4% topical 1× daily Days 5-21, Day 20): 667 ± 508 FU/mm
- Tear Fluorescein Clearance ([1]; 1.0% group, Day 2, before treatment start (day 5)): 880 ± 673 FU/mm
- Tear Fluorescein Clearance ([1]; 1.0% group, Day −1, baseline, before treatment start (day 5)): 575 ± 682 FU/mm
- Tear Fluorescein Clearance ([1]; 1.0% topical 1× daily Days 5-21, Day 5 (test before first instillation)): 550 ± 369 FU/mm
- Tear Fluorescein Clearance ([1]; 1.0% topical 1× daily Days 5-21, Day 7): 1098 ± 639 FU/mm
- Tear Fluorescein Clearance ([1]; 1.0% topical 1× daily Days 5-21, Day 14): 686 ± 306 FU/mm
- Tear Fluorescein Clearance ([1]; 1.0% topical 1× daily Days 5-21, Day 20): 1067 ± 773 FU/mm
- Tear Fluorescein Clearance ([1]; 2.5% group, Day 2, before treatment start (day 5)): 777 ± 592 FU/mm
- Tear Fluorescein Clearance ([1]; 2.5% group, Day −1, baseline, before treatment start (day 5)): 428 ± 312 FU/mm
- Tear Fluorescein Clearance ([1]; 2.5% topical 1× daily Days 5-21, Day 5 (test before first instillation)): 671 ± 344 FU/mm
- Tear Fluorescein Clearance ([1]; 2.5% topical 1× daily Days 5-21, Day 7): 561 ± 231 FU/mm
- Tear Fluorescein Clearance ([1]; 2.5% topical 1× daily Days 5-21, Day 14): 791 ± 235 FU/mm
- Tear Fluorescein Clearance ([1]; 2.5% topical 1× daily Days 5-21, Day 20): 673 ± 170 FU/mm
- maximum solubility [2]: 2.5%

Compound: NGF: nerve growth factor (recombinant human), positive control
- Tear Fluorescein Clearance ([1]; 0.00053% group, Day 2, before treatment start (day 5)): 933 ± 824 FU/mm
- Tear Fluorescein Clearance ([1]; 0.00053% group, Day −1, baseline, before treatment start (day 5)): 483 ± 562 FU/mm
- Tear Fluorescein Clearance ([1]; 0.00053% topical 1× daily Days 5-21, Day 5 (test before first instillation)): 804 ± 432 FU/mm
- Tear Fluorescein Clearance ([1]; 0.00053% topical 1× daily Days 5-21, Day 7): 1080 ± 572 FU/mm
- Tear Fluorescein Clearance ([1]; 0.00053% topical 1× daily Days 5-21, Day 14): 1097 ± 1112 FU/mm
- Tear Fluorescein Clearance ([1]; 0.00053% topical 1× daily Days 5-21, Day 20): 861 ± 414 FU/mm
